Experimental data published in US11535754B2, “Silicon containing detectable compounds and uses thereof” (Singular Genomics Systems, Inc., priority 2019, dated 2022).

Test: Absorption maximum (λmax) of the azasiline dyes, from the HPLC / LC-MS absorption profile
Format: physicochemical
Conditions: absorption profile from HPLC/LC-MS analysis (FIGS. 1A-1B: 100 mM TEAA and ACN); value for compound 4 from initial attempts to quantify the absorption
Description: FIGS. 1A-1B. Absorption profile for compound 2 (FIG. 1A) and compound 3 (FIG. 1B), as described herein: HPLC chromatogram of the reaction mixture with 100 mM triethylammonium acetate (TEAA) and acetonitrile (ACN).
A mixture of 1a (0.155 mmol) and hydrochloric acid (0.053 mL) in absolute ethanol (1.6 mL) was cooled to 0° C., to which a solution of sodium nitrite (12.1 mg in 0.107 mL) in water was added and stirred for 3 hours after which the solid (dark green crystals) was filtered off. It was diluted with ethanol (1 mL) and 0.02 mL of 1N HCl was added to the mixture. The resulting mixture was refluxed for 4 hours. The progress of the reaction was monitored by HPLC using triethylammonium acetate (TEAA) and acetonitrile (ACN) as the mobile phases on reverse phase (RP) C18 column. The formation of the product was confirmed by mass analysis and HPLC analysis based on the wavelength (see FIG. TA). […]
Synthesis of compound 3. […] The reaction mixture was stirred for overnight and the progress of the reaction was monitored by LC-MS analysis to generate compound 3 (λmax 810 nm); see FIG. 1B.
Synthesis of compound 4. […] The reaction mixture was stirred for overnight and the progress of the reaction was monitored by LC-MS analysis to generate and confirm the presence of compound 4.

CN1CCCc2cc3c(cc21)[Si](C)(C)c1cc2c(cc1=N3)CCC[N+]=2C [compound 4]
absorption maximum (λmax): greater than 850 nm
